This passage reports melting point results from a melting point compilation (Tetko et al.; mined from patent text by program, amines drawn as free bases though some values may be those of a salt).

By melting point is commonly meant the temperature of the solid-liquid transition. Take `CCOC(=O)c1ccc(N=C(Nc2ccc(C(=O)OCC)cc2)c2ccc([N+](=O)[O-])cc2)cc1`: the melting point lay in the range of 202 to 205 °C.
The figure for `Cn1c(C(F)(F)F)cc(=O)n(-c2cc(Oc3ccc[nH]c3=O)c(Cl)cc2F)c1=O` is 181 °C.
Compound `COc1ccc2c(c1)c(CC(=O)OCCNC(=O)c1cccnc1)c(C)n2C(=O)c1ccc(Cl)cc1` registered a melting point of 123 to 125 °C.
With `C[C@@H]1CCNC[C@@H]1N(C)c1nccc2[nH]ccc12`, the melting point was 127 °C.
As to `COc1c(Cl)nc(N2CCOCC2)nc1Cl`, the melting point came to 116 °C.
Consider `CCC1c2cccn2-c2ccc(F)cc2N1C(=O)c1cccc(O)c1` (stereo not given), for which the melting point lay within 115 to 117 °C.
The same measure for `COc1ccc(CNc2c(NC(C)(C)C)c(=O)c2=O)c(OC)c1`: 225 to 226 °C.
Take `CCOC(=O)c1cc2occc2nc1C(=O)OCC`: the melting point lay in the range of 60 to 64 °C.
`CCCn1nc(C(C)C)c(C(=O)OCc2ccccc2C(=O)c2ccccc2)c1Cc1ccc(-c2ccccc2S(N)(=O)=O)c(F)c1` registered a melting point of 49 to 51 °C.
For `O=C(Nc1ccc(-n2nc(C(F)(F)F)cc2C(F)(F)F)cc1)c1cc([N+](=O)[O-])cc([N+](=O)[O-])c1`, the melting point was above 230 °C.
`CC=CCn1c(=O)n(C2OC(CO)C(O)C2O)c2nc(N)[nH]c(=O)c21` (stereo not given) gave a melting point of 167 to 170 °C.
Compound `N=C(N)NOCc1ccccc1` registered a melting point of 104 to 105 °C.
The compound `CC(=O)Nc1cc(Oc2ccc3c(C(=O)Nc4ccc(CN5CCN(C)CC5)cc4)cccc3c2)ncn1` yielded a melting point of 238 to 242 °C.
The same measure for `O=C(O)CCCCCOc1cc(-c2ccccc2)cc(-c2ccccc2)n1`: 87 to 88 °C.
The compound `CCC1(C)SC(NC)=NN1C(=O)C(C)(C)C` (stereo not given) yielded a melting point of 132 to 136 °C.
The compound `O=C(c1ccccc1Cl)c1cc(Cl)ccc1C#CCN1C(=O)c2ccccc2C1=O` showed a melting point of 144 to 145 °C.
In the case of `OCC#Cc1cc(Cl)cc2nc(-c3ccccc3Cl)oc12`, the melting point lay within 165 to 169 °C.
`O=C(O)c1cc(C(=O)O)cc(P(=O)(O)O)c1` gave a melting point of 360 °C.
Consider `FC(F)(F)c1ccc(-c2cc(Oc3ccc4cccnc4c3)ncn2)c(NCC2CCCCC2)n1`, for which the melting point fell in the range of 151 to 152 °C.
Regarding `CC(C)C1(C)NC(c2ccccc2C(=O)O)=NC1=O` (stereo not given), the melting point is 162 to 163 °C.
Consider `CCCCc1nc(-c2ccc(C(=O)NCCC(C)(C)C)cc2)no1`, for which the melting point lay in the range of 78 to 80 °C.
In turn, `CCOC(=O)c1cc2c3c(c(-c4ccccc4Cl)cc2n1CCCOC)C(=O)NC3=O` displayed a melting point of 235 to 237 °C.
As for `CC1(C)C(=O)Oc2ccc3ccc(Cn4ccnc4)cc3c21`, the melting point lay within 135 to 136 °C.
The figure for `O=C(CN1CCC(Cc2ccc(F)cc2)CC1)Nc1ccc(O)cc1` is 70 to 77 °C; for `O=C(O)Cn1c(-c2cc(Cl)ccn2)nc2cccnc21` it is 218 to 220 °C; for `COc1ccc(C(=O)Cc2ccncc2Cl)cc1OC1CCCC1` it is 124 to 125 °C.
In turn, `CC(C)(C)c1ncc(Nc2ncc(-c3ccc4ccncc4c3)c3ccccc23)cn1` had a melting point of 231 to 232 °C.
`Cc1oc(-c2ccco2)nc1COc1ccc(Cn2cc(CCC(=O)O)c(-c3ccccc3)c2)cc1` displayed a melting point of 86 to 87 °C.
The same measure for `COc1cc(CC(=O)Nc2nn(-c3ccccc3)cc2C=O)ccc1OCc1nc(-c2ccccc2)oc1C`: 156 to 158 °C.
On to `CCOCc1nc2c(N)nc3cc(NS(=O)(=O)CC)ccc3c2n1CC(C)(C)O`, for which the melting point is 124 to 127 °C.
For `CNC(c1ccc(O)cc1)c1csc(S(N)(=O)=O)c1` (stereo not given), the melting point fell in the range of 127 to 129 °C.
`C=CC(=O)Oc1ccc(N2C(=O)C(=C(C)C)/C(=C(/C)c3cc(C)oc3C)C2=O)cc1` registered a melting point of 157 to 158 °C.
Regarding `CCc1nc2c(cnn2CC)c(NC2CCOCC2)c1CNC(=O)c1cccc(C(=O)NCc2cc(Cl)cc(Br)c2)c1`, the melting point fell in the range of 109 to 112 °C.
The figure for `N#CCCCCCc1nc(-c2ccc(Cl)cc2)c(-c2ccc(Cl)cc2)o1` is 108 °C; for `O=c1cc(S)sc2cc(N3CCOCC3)ccc12` it is above 250 °C; for `COc1ccccc1NC(=S)NC(NC(=O)c1ccc(C)cc1)C(F)(F)F` (stereo not given) it is 212 to 214 °C.
With `CCCCOc1c(CNC(=O)OC(C)(C)C)n(CC(C)C)c(=O)c2ccc(-c3nc(C#N)cs3)cc12`, the melting point was in the range of 160 to 161 °C.
`NC(=Nc1ccc(CCNC(=O)c2cc(N)ccc2O)cc1)c1cccs1` had a melting point above 260 °C.
`Cc1ccc(CC(CNC(=O)C(C)c2ccc(NS(C)(=O)=O)c(Cl)c2)COC(=O)C(C)(C)C)cc1C` (stereo not given) returned a melting point of 127 to 129 °C.
For the compound `CCOC1(c2ccccc2)c2cc(Cl)ccc2NC(=O)N1c1ccccc1` (stereo not given), the melting point lay within 209 to 211 °C.
In turn, `CC1(C)OC(=S)Nc2ccc(-c3sccc3C#N)cc21` gave a melting point of 194 to 195 °C.
As to `CC(CN1CC=C(c2cccs2)CC1)N(C(=O)C1CC=CCC1)c1ccccn1` (stereo not given), the melting point fell in the range of 92 to 96 °C.
Take `CCOC(=O)c1cn2ccncc2n1`: the melting point was 179 °C.
The same measure for `Cc1ccc2cc(C(=O)NC3(C(=O)O)CCCC3)sc2c1`: 214 to 217 °C.
Regarding `CCN(CC)C(=O)CCc1nc(-c2ccc([N+](=O)[O-])cc2)nc2ccccc12`, the melting point amounted to 168 °C.
`CCOC(=O)C1=C(C)NC(c2ccco2)=C(C(=O)OCC)C1c1cccc([N+](=O)[O-])c1` (stereo not given) registered a melting point of 130 to 131 °C.
The compound `COC(=O)[C@H]1[C@H](c2ccc3c(c2)OCO3)c2ccc(O)cc2[C@@H]1c1ccc(OC)cc1` (racemic) displayed a melting point of 187 to 188 °C.
Take `CC1=CC(=O)C(=Cc2ccc(O)cc2O)O1`: the melting point was in the range of 239 to 242 °C.
As to `COC(=O)c1coc(CN2C(=O)C3(COc4cc5onc(C)c5cc43)c3ccccc32)n1` (stereo not given), the melting point fell in the range of 148 to 152 °C.
For `CC[C@H]1CN(c2ccc(-c3ccnc(Nc4cc(OC)c(OC)c(OC)c4)n3)cn2)CCN1`, the melting point was 82 to 83 °C.
Consider `CNc1ncc2cc(-c3ccccc3)c(NC)nc2n1`, for which the melting point was 204 to 205 °C.
Take `CN(C(=O)Nc1ccc2ccccc2c1)c1cccc(-c2ccc(CC(Nc3ccccc3C(=O)c3ccccc3)C(=O)O)cc2)c1` (stereo not given): the melting point was 125 °C.
`O=C(O)C=NNc1ccc(C(F)(F)F)cc1`: the melting point was determined as 125 °C.
Regarding `O=C1C=C(CO)C(=O)N1`, the melting point is 104 to 106 °C.
As for `Cc1cc(C2CC2)nc(NC(=O)NS(=O)(=O)c2cccc3c2OS(=O)(=O)C(C)C3)n1` (stereo not given), the melting point was in the range of 216 to 217 °C.
Compound `CCOC(=O)/C=C(/c1ccc(OCC)cc1)c1cc(Cl)cc(Cl)c1` yielded a melting point of 104 to 106 °C.
As for `Cc1ccsc1C(=O)N1CCC(Sc2ccc(CCNC[C@H](O)COc3ccc(O)cc3)cc2)CC1`, the melting point was in the range of 135 to 144 °C.
For `Cc1cc2c(cc1-n1cccc1)OC(=O)C2C` (stereo not given), the melting point lay in the range of 61 to 63 °C.
The figure for `CCOC(=O)c1cccc(Cn2cnc3cnccc32)c1` is 119 to 120 °C.
In turn, `O=C1OC(=Cc2c[nH]c3ccccc23)C(=O)N1Cc1cc(C(F)(F)F)cc(C(F)(F)F)c1` gave a melting point of 145 to 146 °C.
As to `CSc1cc(C(C)(C)C)c(O)c(C(=O)Nc2ccc(S(=O)(=O)C(F)(F)F)cc2Cl)c1C`, the melting point turned out to be 156 °C.
The figure for `CN(C(=O)c1ccc(CS(=O)(=O)Cn2cnc3ccccc32)cc1)C1CCCCC1` is 142 to 143 °C; for `Cc1ccc(-c2cc(C(F)(F)F)n3cnc(C#N)c3n2)cc1` it is 197 °C.
In turn, `CCOP(=O)(Cc1cc(C(C)(C)C)c(O)c(C(C)(C)C)c1)OCC` gave a melting point of 114 °C.
With `CSc1ncc2cc(Cc3ccccc3F)c(=O)n(C)c2n1`, the melting point is 156 to 159 °C.
As for `CCOc1cc2ncc(C#N)c(Nc3ccc(OCc4ccccc4)c(Cl)c3)c2cc1NC(=O)CC(CN1CCCC1)N1CCCC1` (stereo not given), the melting point was 85 to 87 °C.
`CC(C)(C)c1nnc(N)n(N)c1=O` returned a melting point of 223 to 224 °C.
For `Cc1cc(-c2cc3c(cc2C)OC(C)(C)C=C3)ccn1`, the melting point is 212 to 214 °C.
The figure for `O=C(NC1(c2cccc(F)c2)CCC1)OCc1ccccc1` is 81 to 82 °C.
With `CCCOc1ccc(S(=O)(=O)Nc2ccc3[nH]ncc3c2)cc1-c1nc2cc(Cl)c([N+](=O)[O-])cc2c(=O)[nH]1`, the melting point fell in the range of 261 to 263 °C.
Take `COc1ccc(N(CCC(=O)N(C)CC(=O)O)C(=O)c2ccc(Cl)cc2)cc1`: the melting point fell in the range of 129 to 131 °C.
The figure for `CCOC(=O)c1nn(-c2ccc(OC)cc2)c2c1CCC2` is 108 to 109 °C; for `CCCCCCCCCCCCCCCC(=O)OC(COCc1ccc(OC)cc1)COC(=O)CCCCCCCCCCCNC(=O)OCc1ccccc1` (stereo not given) it is 44 to 47 °C; for `Cn1cc(C(=O)NCc2ccc(Cl)cc2)c(=O)c2cc(CO)sc21` it is 222 to 225 °C.
`CC(C)(C)n1ncc(OCc2ccc(OCc3ccc(F)cc3)nc2)c(Cl)c1=O` yielded a melting point of 121 to 124 °C.
The figure for `CCN(CC)C(=O)C(C)(C)n1cc(C)c(-c2ccccc2Cl)n1` is 73 to 76 °C; for `Oc1c2c(nn1-c1nc3ccccc3[nH]1)CCc1ccccc1-2` it is 205 to 206 °C; for `COc1cc(CO)ccc1OCc1nc(-c2cccc(C#N)c2)oc1C` it is 113 to 115 °C.
`C=CCONC(=O)c1nc(-c2ccc(C#N)cc2)cc(N)c1Cl` gave a melting point of 218 to 221 °C.
For the compound `Cc1nc2c(N)nc3cc(OCCC4CCN(C(=O)C(C)C)CC4)ccc3c2n1CC(C)C`, the melting point fell in the range of 205 to 207 °C.
`CCCCCCC/C=C\CCCCCCCC(=O)CCCNC(C)=O` came in with a melting point of 51 to 52 °C.
On to `C=CC=Cc1cc(Oc2cnc(N)nc2N)c(I)cc1C`, for which the melting point lay in the range of 195 to 197 °C.
The figure for `CCCCCCCCCCCCCCCc1cccc(OCC#CC(=O)C(F)(F)F)c1` is 35 to 36 °C.
As for `N#Cc1ccc(N(Cc2ccc3c(c2)CNS(=O)(=O)O3)n2ccnc2)cc1`, the melting point was determined as 190 °C.
Compound `COc1ccc2sn(C(C)(C)C)c(=O)c2c1` displayed a melting point of 92 to 94 °C.
